Laboratory results from patent US7001888B2, “Compositions and methods for treating cancer” (Threshold Pharmaceuticals, Inc., priority 2002, dated 2006).
Where “and” joins values, the source holds several entries; their conditions need not be identical. Identical values can stand only once.

System: HepG2 cells
Experiment: Uptake of compounds by HepG2 cells
Format: cell-based, human
Details: for Uptake: 100 μM compound, 1 hour at 37° C., per mg protein, iodo conjugates by ICP-MS iodide content, 14C controls by scintillation counting; for Relative uptake among the compounds of the invention tested: comparison of Table 1 values; for Effect of D-glucose on uptake: D-glucose (10 mM) present; for Effect of L-glucose on uptake: L-glucose (10 mM) present
Protocol: This example describes assays conducted to determine to what extent certain iodo-containing conjugates of the invention are taken up or transported into cancer cells. As a positive control, the uptake of ^14C-labeled-2-deoxy-D-glucose, a compound transported into human cells via glucose transporters and phosphorylated by hexokinase, and thus retained in the cell, was measured. As a negative control, the uptake of ^14C-labeled-3-O-methyl-glucose, which is transported into the cell via the glucose transporters but is not phosphorylated and so is not retained, was measured.
The control assay was conducted as follows. HepG2 cells were plated at a density of 2×10^5 cells per well into a 24 well plate, and the plates were maintained in 37° C. incubator (5% CO2) for 2 days. Prior to the uptake assay, the HepG2 cells were rinsed twice with pre-warmed (37° C.) phosphate-buffered saline (PBS) containing 1 mM CaCl2, 1 mM MgCl2 and 0.3% BSA. The rinsed HepG2 cells were then incubated with 270 μl of buffer (PBS/Ca/Mg/BSA) in the absence or presence of D-glucose (10 mM), L-glucose (10 mM), cytochalasin B (10 μM) or phloretin (0.3 mM) for 10 min at 37° C. Then, 30 μl of ^14C-2DG (final concentration: 100 μM, 0.1 μCi) were added to each well, and the cells were incubated for 1 hour at 37° C. The plate was placed on ice, and the cells were washed rapidly three times with cold PBS buffer (4° C.) containing 1 mM CaCl2 and MgCl2. The cells were then lysed with 150 μl of 1% Triton X-100, and the lysate was transferred to a scintillation vial. The well was rinsed with 200 μl ddH2O, and the rinsate was transferred to the same vial. Radioactivity was quantified using a scintillation counter. The protein concentration of each sample was determined using a BCA kit (Sigma, St Louis, Mo.). The amount of uptake of ^14C-2DG is reported below in units of nmole/mg protein/60 min.
To measure uptake of the iodo-containing compounds of the invention, HepG2 cells were plated at a density of 2×10^5 cells per well into a 24 well plate, and the plates were maintained in 37° C. incubator (5% CO2) for 2 days. Prior to the uptake assay, the HepG2 cells were rinsed twice with pre-warmed (37° C.) phosphate-buffered saline (PBS) containing 1 mM CaCl2, 1 mM MgCl2 and 0.3% BSA. The HepG2 cells were then incubated with 270 μl of buffer (PBS/Ca/Mg/BSA) in the absence or presence of D-glucose (10 mM), L-glucose (10 mM), cytochalasin B (10 μM) or phloretin (0.3 mM) for 10 min at 37° C. Then, 30 μl of each of the conjugates (final concentration: 100 μM) were added to individual test wells, and the plates were incubated for 1 hour at 37° C. The plate was placed on ice, and then, the cells were washed rapidly three times with cold PBS buffer (4° C.) containing 1 mM CaCl2 and MgCl2. The cells were lysed by the sequential addition of 150 μl of 1% Triton X-100 and 100 μl of ddH2O into each well. Lysates from six replicate wells were pooled together for each sample (volume per sample: 1.5 ml). The protein concentration of each sample was determined using a BCA kit (Sigma, St Louis, Mo.). Samples were diluted by addition of 4 ml of ddH2O (final volume per sample: 5.5 ml), and the samples treated with the iodo-containing conjugates were analyzed for iodide content by inductively coupled plasma-mass spectrometry (West Coast Analytical Service, Santa Fe Spring, Calif.). The amount of uptake of iodide-containing glucose conjugate is reported as nmole/mg protein/60 min.

Row | Compound | Uptake | Relative uptake among the compounds of the invention tested | Effect of D-glucose on uptake | Effect of L-glucose on uptake
1 | 4-(iodophenyl)thiocarbamoyl glucosamine [TP022] | 0.90 nmole/mg/60 min and 0.97 nmole/mg/60 min |  |  | 
2 | OC[C@H]1OC(O)[C@H](N(C/C=C/I)C/C=C/I)[C@@H](O)[C@@H]1O (stereo partly shown) [TP019, bis-E-3-iodopropen-2-yl glucosamine] | 1.39 nmole/mg/60 min and 1.00 nmole/mg/60 min |  |  | 
3 | OC[C@H]1OC(O)[C@H](N(C/C=C\I)C/C=C\I)[C@@H](O)[C@@H]1O (stereo partly shown) [TP018, bis-Z-3-iodopropen-2-yl glucosamine] | 2.28 nmole/mg/60 min and 2.31 nmole/mg/60 min | most taken up by the cells |  | 
4 | 4-iodohippuroyl glucosamine [TP011] | 0.5 nmole/mg/60 min |  | blocked | not L-glucose
5 | O=S(=O)(N[C@H]1C(O)O[C@H](CO)[C@@H](O)[C@@H]1O)c1ccc(I)cc1 (stereo partly shown) [TP020, Pipsyl glucosamine] | 0.83 nmole/mg/60 min and 0.81 nmole/mg/60 min |  |  | 
6 | CO[C@@H]([C@H](O)[C@H](O)CO)[C@@H](O)C=O [3-O-Methyl Glucose, 3-O-methyl-glucose, reference compound] | 0.2 nmole/mg/60 min |  |  | 
7 | 4-iodobenzyl glucosamine [TP012] | 2.8 +/− 0.14 (n = 4) nmole/mg/60 min | most taken up by the cells | not blocked | not blocked
8 | O=CC[C@@H](O)[C@H](O)[C@H](O)CO [Compound 2-DG, 2-deoxy-D-glucose, reference compound] | 51.8 +/− 4.3 (n = 3) nmole/mg/60 min |  |  | 
9 | O=C(COCCOCCOCCOCCOCc1ccc(I)cc1)NC1C(O)O[C@H](CO)[C@@H](O)[C@@H]1O (stereo partly shown) [TP017] | 0.16 nmole/mg/60 min and 0.18 nmole/mg/60 min |  |  | 
10 | O=C(NCCN[C@H]1C(O)O[C@H](CO)[C@@H](O)[C@@H]1O)c1ccc(I)cc1 (stereo partly shown) [TP014] | 1.2 nmole/mg/60 min |  |  | 
